Active and inactive are the calls of the source. Bounds are passed on as bounds.

For orientation: EC50 means the concentration needed to bring the measured effect to its halfway point. The term Ki denotes a measure of affinity in units of concentration, obtained from inhibition or displacement. In general, AC50 refers to the concentration giving half of the maximal activity seen.

Assay [1] deals with T1, Sphingosine 1-phosphate receptor 4 (Homo sapiens, UniProt O95977).
T1 sequence (O95977 whole entry): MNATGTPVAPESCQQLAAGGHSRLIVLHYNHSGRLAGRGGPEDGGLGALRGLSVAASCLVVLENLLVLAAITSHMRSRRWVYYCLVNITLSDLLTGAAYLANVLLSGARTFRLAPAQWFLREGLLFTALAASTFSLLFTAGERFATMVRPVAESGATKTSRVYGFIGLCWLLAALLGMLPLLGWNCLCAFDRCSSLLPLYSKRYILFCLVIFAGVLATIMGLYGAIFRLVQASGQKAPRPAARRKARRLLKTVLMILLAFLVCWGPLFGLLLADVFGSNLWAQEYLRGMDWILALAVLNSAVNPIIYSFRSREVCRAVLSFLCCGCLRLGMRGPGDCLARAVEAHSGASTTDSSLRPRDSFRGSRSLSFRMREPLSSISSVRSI
Description: Late-stage fluorescence-based dose-response cell-based counterscreen assay to identify agonists of the Sphingosine 1-Phosphate Receptor 3 (S1P3): Sphingosine 1-Phosphate Receptor 4 (S1P4) agonist assay. Type of assay: functional.

In assay [2] the target is Sphingosine 1-phosphate receptor 2 (Homo sapiens, UniProt O95136). Description: Late-stage fluorescence-based dose-response cell-based counterscreen assay to identify agonists of the Sphingosine 1-Phosphate Receptor 3 (S1P3): Sphingosine 1-Phosphate Receptor 2 (S1P2) agonist assay. It counts as functional. A general note: The purpose of a counterscreen is to sort out artefacts and off-target activity.
Sphingosine 1-phosphate receptor 2, sequence (O95136 whole entry): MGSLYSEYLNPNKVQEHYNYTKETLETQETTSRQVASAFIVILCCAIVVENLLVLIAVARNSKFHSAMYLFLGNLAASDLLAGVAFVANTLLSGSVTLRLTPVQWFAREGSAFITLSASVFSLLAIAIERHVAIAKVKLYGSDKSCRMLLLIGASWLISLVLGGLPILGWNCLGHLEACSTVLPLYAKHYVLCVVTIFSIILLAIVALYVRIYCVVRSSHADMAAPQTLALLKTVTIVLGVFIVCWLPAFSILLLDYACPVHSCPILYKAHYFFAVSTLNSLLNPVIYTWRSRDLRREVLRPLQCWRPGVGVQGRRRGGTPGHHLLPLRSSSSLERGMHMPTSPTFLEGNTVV

Assay [3] deals with Cell division cycle 7-related protein kinase (Homo sapiens, UniProt O00311). Type of assay: functional.
Cell division cycle 7-related protein kinase, sequence (O00311 whole entry): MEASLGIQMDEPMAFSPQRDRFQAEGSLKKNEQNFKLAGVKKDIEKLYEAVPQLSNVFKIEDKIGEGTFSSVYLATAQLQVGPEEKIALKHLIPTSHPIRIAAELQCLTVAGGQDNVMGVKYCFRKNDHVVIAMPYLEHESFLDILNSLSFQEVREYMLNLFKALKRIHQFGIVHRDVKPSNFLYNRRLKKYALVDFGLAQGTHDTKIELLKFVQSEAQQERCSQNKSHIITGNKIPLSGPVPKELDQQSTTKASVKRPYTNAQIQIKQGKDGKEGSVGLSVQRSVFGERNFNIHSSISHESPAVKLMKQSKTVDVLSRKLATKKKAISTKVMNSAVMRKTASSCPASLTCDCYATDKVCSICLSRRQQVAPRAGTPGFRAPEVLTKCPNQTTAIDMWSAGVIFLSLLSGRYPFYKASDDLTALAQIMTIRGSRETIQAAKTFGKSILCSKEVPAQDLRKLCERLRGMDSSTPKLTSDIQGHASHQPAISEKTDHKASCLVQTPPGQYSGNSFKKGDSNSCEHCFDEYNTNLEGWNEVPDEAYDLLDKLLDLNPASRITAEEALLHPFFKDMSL
The target of assay [4] is Cyclin-dependent kinase 19 (Homo sapiens, UniProt Q9BWU1). In words: Navigating the Kinome. Panel member name: CDC2L6. It counts as functional.
Cyclin-dependent kinase 19, sequence (Q9BWU1 whole entry): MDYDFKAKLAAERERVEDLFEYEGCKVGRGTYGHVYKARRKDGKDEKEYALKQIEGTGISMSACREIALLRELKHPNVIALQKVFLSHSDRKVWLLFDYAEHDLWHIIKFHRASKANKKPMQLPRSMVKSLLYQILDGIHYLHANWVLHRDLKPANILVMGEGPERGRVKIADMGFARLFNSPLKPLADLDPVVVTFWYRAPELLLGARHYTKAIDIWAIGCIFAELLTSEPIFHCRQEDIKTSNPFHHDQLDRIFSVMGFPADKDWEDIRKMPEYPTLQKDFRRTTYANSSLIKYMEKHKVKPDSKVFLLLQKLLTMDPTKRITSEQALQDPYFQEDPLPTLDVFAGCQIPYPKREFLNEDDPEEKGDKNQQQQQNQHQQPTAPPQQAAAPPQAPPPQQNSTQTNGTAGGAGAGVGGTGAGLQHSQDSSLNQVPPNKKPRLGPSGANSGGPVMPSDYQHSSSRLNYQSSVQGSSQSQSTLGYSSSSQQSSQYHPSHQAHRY
Assay [5] deals with DNA dC->dU-editing enzyme APOBEC-3G (Homo sapiens, UniProt Q9HC16). Description: inhibition of APOBEC3G ssDNA deamination – biochemical, fluorescence, single-stranded DNA substrate, SAR follow-up (AID 602136). It counts as functional. To be noted: read-out: IC50_Mean.
DNA dC->dU-editing enzyme APOBEC-3G, sequence (Q9HC16 whole entry): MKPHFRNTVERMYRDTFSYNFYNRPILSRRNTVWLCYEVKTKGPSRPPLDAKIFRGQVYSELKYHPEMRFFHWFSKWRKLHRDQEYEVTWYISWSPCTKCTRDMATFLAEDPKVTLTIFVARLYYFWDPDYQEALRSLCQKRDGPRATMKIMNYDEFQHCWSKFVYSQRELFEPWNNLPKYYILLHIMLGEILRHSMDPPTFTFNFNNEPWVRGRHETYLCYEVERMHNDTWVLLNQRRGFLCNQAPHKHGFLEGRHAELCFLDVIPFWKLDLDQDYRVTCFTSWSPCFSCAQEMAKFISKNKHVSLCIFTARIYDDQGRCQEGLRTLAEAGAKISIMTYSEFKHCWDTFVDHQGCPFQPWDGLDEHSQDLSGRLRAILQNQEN
Assay [6] deals with DNA dC->dU-editing enzyme APOBEC-3A (Homo sapiens, UniProt P31941). Description: SAR analysis of small molecule inhibitors of APOBEC3A DNA Deaminase via a fluorescence-based single-stranded DNA deaminase assay. To be noted: read-out: IC50_Mean. It counts as functional.
DNA dC->dU-editing enzyme APOBEC-3A, sequence (P31941 whole entry): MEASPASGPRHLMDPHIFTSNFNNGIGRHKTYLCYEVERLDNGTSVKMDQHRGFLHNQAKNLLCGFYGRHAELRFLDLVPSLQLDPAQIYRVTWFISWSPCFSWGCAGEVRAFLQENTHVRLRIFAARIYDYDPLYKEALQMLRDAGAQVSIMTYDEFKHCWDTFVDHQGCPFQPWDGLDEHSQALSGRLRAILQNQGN
Assay [7] is described as follows: Mcl1-dependent cancer cell viability – HMC-1-8 cells, luminescence, dry powder, selectivity assay for A1 inhibitor project, dose response (AID 504415). Type of assay: functional, cell-based. Conditions: Homo sapiens.
Assay [8] addresses T2, Replicative DNA helicase DnaB (Mycobacterium tuberculosis, UniProt P9WMR3).
T2 sequence (P9WMR3 whole entry): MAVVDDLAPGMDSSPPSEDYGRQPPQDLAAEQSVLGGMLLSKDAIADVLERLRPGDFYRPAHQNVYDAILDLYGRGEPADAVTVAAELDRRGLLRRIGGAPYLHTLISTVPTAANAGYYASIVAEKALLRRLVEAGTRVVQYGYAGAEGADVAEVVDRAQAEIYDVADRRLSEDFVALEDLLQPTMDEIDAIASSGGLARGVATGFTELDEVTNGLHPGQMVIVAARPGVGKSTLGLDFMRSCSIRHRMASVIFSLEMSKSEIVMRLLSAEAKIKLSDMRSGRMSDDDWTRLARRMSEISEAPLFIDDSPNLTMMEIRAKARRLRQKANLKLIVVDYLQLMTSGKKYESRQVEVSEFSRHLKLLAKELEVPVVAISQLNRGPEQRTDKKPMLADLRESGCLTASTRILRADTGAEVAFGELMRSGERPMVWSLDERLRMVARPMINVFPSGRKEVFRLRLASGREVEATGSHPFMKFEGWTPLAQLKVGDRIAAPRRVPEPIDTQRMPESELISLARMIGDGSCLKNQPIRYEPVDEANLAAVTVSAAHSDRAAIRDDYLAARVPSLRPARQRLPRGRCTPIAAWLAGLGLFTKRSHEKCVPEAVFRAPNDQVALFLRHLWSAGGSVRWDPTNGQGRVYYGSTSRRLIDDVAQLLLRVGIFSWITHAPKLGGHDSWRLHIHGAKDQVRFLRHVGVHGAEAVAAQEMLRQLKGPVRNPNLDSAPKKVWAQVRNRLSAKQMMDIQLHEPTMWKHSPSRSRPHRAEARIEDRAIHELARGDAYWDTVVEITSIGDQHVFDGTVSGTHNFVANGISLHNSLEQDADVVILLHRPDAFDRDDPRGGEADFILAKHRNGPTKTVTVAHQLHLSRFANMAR
In words: DnaB intein splicing inhibitors, dose response, biochemical, cell-free fluorescence (AID 449749). Type of assay: functional.

The target in assay [9] is T3, NACHT, LRR and PYD domains-containing protein 1 (Homo sapiens, UniProt Q9C000).
T3 sequence (Q9C000 whole entry): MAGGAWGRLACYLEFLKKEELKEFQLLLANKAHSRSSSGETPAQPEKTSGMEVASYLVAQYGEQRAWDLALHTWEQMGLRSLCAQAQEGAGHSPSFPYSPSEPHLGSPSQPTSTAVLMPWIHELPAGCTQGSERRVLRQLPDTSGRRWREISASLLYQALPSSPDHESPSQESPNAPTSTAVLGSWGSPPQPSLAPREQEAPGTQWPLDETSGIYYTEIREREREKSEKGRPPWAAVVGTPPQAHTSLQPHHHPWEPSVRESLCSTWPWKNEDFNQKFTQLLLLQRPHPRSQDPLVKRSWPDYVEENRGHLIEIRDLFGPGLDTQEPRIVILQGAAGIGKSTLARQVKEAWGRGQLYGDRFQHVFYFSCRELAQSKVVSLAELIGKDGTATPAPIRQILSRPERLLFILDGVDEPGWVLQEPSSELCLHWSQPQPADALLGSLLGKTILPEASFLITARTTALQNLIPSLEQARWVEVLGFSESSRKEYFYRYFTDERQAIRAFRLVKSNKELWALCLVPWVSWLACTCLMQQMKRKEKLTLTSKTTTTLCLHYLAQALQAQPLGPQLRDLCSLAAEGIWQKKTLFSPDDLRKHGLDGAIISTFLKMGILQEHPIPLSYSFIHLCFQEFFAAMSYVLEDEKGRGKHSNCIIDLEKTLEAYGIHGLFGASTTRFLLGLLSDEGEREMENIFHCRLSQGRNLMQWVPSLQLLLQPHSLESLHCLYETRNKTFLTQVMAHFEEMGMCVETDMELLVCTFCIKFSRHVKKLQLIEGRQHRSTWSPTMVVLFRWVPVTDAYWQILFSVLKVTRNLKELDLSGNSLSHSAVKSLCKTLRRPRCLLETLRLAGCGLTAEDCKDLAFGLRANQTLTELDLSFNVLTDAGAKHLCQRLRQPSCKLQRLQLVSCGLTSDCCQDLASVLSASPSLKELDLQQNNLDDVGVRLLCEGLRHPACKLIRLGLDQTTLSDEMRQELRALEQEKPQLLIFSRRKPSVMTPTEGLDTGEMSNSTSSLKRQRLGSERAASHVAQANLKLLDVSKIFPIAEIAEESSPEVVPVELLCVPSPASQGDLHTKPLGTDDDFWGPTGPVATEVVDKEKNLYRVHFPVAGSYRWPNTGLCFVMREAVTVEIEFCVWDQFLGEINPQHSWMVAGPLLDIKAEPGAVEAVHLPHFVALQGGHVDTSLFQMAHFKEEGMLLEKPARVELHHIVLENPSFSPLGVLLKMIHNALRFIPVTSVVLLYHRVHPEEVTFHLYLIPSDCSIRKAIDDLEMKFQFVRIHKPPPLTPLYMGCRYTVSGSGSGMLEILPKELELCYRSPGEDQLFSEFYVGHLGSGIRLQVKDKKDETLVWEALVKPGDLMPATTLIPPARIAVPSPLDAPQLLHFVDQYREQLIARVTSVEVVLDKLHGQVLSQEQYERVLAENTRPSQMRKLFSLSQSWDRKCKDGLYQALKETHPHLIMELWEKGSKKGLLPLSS
Description: NALP1 inhibitors in yeast, dose response, luminescent (AID 488860). It counts as functional.

Assay [10] addresses T4, Protein RecA (Mycobacterium tuberculosis, UniProt P9WHJ3).
T4 sequence (P9WHJ3 whole entry): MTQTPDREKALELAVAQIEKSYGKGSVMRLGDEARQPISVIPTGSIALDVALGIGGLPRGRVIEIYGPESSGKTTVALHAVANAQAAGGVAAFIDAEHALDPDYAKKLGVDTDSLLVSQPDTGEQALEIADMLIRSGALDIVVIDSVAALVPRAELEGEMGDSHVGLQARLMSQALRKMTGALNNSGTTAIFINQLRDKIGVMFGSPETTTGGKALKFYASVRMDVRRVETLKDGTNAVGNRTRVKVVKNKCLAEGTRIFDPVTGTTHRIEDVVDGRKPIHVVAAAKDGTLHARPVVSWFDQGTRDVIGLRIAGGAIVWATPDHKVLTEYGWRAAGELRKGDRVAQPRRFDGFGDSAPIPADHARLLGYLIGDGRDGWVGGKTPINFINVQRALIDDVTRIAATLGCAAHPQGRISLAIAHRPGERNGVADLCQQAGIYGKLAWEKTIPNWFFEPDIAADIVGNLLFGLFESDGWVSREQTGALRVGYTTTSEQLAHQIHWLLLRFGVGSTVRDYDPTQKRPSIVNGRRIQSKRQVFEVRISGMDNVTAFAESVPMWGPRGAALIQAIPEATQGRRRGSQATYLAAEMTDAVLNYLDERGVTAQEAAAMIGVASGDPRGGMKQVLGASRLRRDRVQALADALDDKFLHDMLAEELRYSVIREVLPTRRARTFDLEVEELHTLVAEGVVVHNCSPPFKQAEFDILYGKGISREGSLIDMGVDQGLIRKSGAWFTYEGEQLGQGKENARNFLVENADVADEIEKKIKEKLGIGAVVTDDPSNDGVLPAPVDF
In words: Fluorescence Cell-Free Homogeneous Dose Retest to Identify Inhibitors of RecA-Intein Splicing Activity. [Related pubchem assays (depositor defined):AID2097, AID2223, AID489010, AID492950]. It counts as functional.

Assay [11] deals with Saccharomyces cerevisiae. Description: S. cerevisiae Caspase-1/ASC signal blockers IC50, NALP1 inhibitor project selectivity test (AID 488863). It counts as functional, organism-based.
For assay [12], the target named is Protein disulfide-isomerase (Homo sapiens, UniProt P07237). Description: inhibition of PDI-driven insulin aggregation – biochemical, turbidity, absorbance, cherry-picked samples, dose response (AID 602350). Type of assay: functional.
Protein disulfide-isomerase, sequence (P07237 whole entry): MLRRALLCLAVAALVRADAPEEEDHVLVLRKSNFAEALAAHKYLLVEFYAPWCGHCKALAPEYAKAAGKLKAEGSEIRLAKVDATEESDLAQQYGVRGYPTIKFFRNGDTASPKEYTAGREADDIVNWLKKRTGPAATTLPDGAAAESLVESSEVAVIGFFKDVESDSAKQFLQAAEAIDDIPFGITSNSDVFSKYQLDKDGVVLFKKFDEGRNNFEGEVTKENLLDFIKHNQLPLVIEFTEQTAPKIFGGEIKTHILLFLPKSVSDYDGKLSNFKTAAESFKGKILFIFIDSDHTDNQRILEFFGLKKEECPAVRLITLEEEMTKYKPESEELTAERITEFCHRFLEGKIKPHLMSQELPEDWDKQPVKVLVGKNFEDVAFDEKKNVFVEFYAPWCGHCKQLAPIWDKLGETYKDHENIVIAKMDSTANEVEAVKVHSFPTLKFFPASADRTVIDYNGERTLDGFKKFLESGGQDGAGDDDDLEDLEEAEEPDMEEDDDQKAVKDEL

Consider `O=C(c1noc2ccccc12)N(C1CCCCC1)C1CCCCC1`, for which the EC50 in [1] and in assay [2] was > 50 µM (inactive) in each case.

As for `O=c1nc(-c2ccccc2)cc(-c2ccncc2)[nH]1`, the values for the Ki in assay [3] and in [4] were 0.158 µM (active) and > 100 µM (inactive), respectively.

As for `Nc1nc2sc3c(c2c2nnc(SCc4ccc(Cl)cc4)n12)CCCC3`, the IC50 in assay [5] and in [6] was > 99 µM (inactive) throughout.

As to `Cn1c(=O)c([N+](=O)[O-])c(-n2cnc3ccccc32)c2ccccc21`, the results for the AC50 in assay [7] and in [8] were 69.6 µM (active) and 8.12 µM (active), respectively. In addition, the IC50 was > 100 µM (inactive) in [9] and 72.3 µM (active) in assay [11]. In addition, the EC50 in assay [10] is 7.26 µM (active).

Regarding `Cc1ccc2nc(N3CCN(Cc4nnnn4C4CCCC4)CC3)c(C#N)cc2c1`, in assay [12], the AC50 is 4.05 µM (active).

The values above are taken from ChEMBL document CHEMBL1201862, “PubChem BioAssay data set” (2004).
